Data taken from the supplement of paper PMC10307832.

Experiments:
Experiment in all cases: relative viability (nuclei count vs DMSO), 5 days (fraction); higher = more cells survive
[1] = compound: N#CC1(c2ccc(NC(=O)c3cccnc3NCc3ccncc3)cc2)CCCC1 [Apatinib] + NC(=O)Nc1cc(-c2cccc(F)c2)sc1C(=O)N[C@H]1CCCNC1 [AZD7762] (partner 0.2 µM)
Summary of the method: (§1)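 Medians of duplicate plates are given as relative viability. That measure is the nuclei count in treated wells divided by the count in vehicle wells. Counts were taken on 4× images of lung cancer cell lines in 1536-well plates, 5 days after pin-tool dosing the day after seeding with one drug alone or a fixed anchor-drug dose plus five library-drug doses (not always all listed) in √10 steps.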

[2] = compound: CN(C)C(=N)NC(=N)N [Metformin] + CC(C)C[C@H](NC(=O)[C@H](Cc1ccccc1)NC(=O)c1cnccn1)B(O)O [Bortezomib] (partner 0.002 µM)
Summary of the method: as §1

[3] = compound: CN(C)C(=N)NC(=N)N [Metformin] + C[C@@H](Oc1cc(-c2cnn(C3CCNCC3)c2)cnc1N)c1c(Cl)ccc(F)c1Cl [Crizotinib] (partner 1 µM)
Summary of the method: as §1

[4] = compound: N#CC1(c2ccc(NC(=O)c3cccnc3NCc3ccncc3)cc2)CCCC1 [Apatinib] + CC(C)C[C@H](NC(=O)[C@H](Cc1ccccc1)NC(=O)c1cnccn1)B(O)O [Bortezomib] (partner 0.002 µM)
Summary of the method: as §1

Cell Line	relative viability ([1]; first compound 0.08 µM)	relative viability ([1]; first compound 0.253 µM)	relative viability ([1]; first compound 0.8 µM)	relative viability ([1]; first compound 2.53 µM)	relative viability ([1]; first compound 8 µM)	relative viability ([2]; first compound 10 µM)	relative viability ([2]; first compound 31.62 µM)	relative viability ([2]; first compound 100 µM)	relative viability ([2]; first compound 316.23 µM)	relative viability ([2]; first compound 1000 µM)	relative viability ([3]; first compound 10 µM)	relative viability ([3]; first compound 31.62 µM)	relative viability ([3]; first compound 100 µM)	relative viability ([3]; first compound 316.23 µM)	relative viability ([3]; first compound 1000 µM)	relative viability ([4]; first compound 0.08 µM)	relative viability ([4]; first compound 0.253 µM)	relative viability ([4]; first compound 0.8 µM)	relative viability ([4]; first compound 2.53 µM)	relative viability ([4]; first compound 8 µM)
NCI-H596	1.09	1.04	0.863	0.944	0.901	1.05	1.13	1.3	1.27	1.21	1.05	1.17	1.09	1.11	1.17	1.2	1	1.17	0.929	1.04
NCI-H23	0.275	0.193	0.21	0.134	0.108	1.07	1.04	1.04	1.11	1.28	0.574	0.692	0.693	0.548	0.811	0.91	1.01	0.908	0.902	0.805
HCC-15	1.13	1.23	1.12	1.15	1.05	0.617	1.08	1.04	0.932	1.09	0.818	0.81	0.889	0.8	0.833	1.09	1.03	0.972	0.88	0.992
HCC-44	1.03	1.01	0.983	0.96	0.947	0.861	0.858	0.88	0.88	0.856	0.824	0.788	0.785	0.749	0.776	1.01	0.951	0.894	0.753	0.856
HCC-78	0.553	0.766	0.666	0.539	0.638	0.842	0.797	0.929	0.831	0.853	0.422	0.487	0.498	0.491	0.529	0.539	0.525	0.618	0.505	0.476
NCI-H3122	0.983	0.988	1.02	0.946	0.933	0.824	0.97	0.921	0.863	0.886	0.225	0.213	0.241	0.255	0.224	1.04	1.05	1.05	1.04	0.958
BEN	0.529	0.67	0.694	0.449	0.621	1.08	1.18	0.775	0.993	0.511	1.16	1.24	1.15	1.01	1.13	0.688	0.868	0.876	0.458	0.871
LU99A	0.413	0.448	0.269	0.224	0.229	0.96	1.06	0.988	0.903	1.04	0.47	0.52	0.443	0.503	0.481	1.21	1.22	1.2	0.943	0.976
EKVX	0.641	0.572	0.656	0.593	0.574	0.737	1.07	1.06	0.934	0.338	0.657	0.896	0.958	0.716	0.895	0.941	1.21	0.967	0.98	1.01
NCI-H1437	1.07	1.12	1.02	1.04	0.812	0.629	0.641	0.459	0.527	0.574	0.931	0.918	0.935	0.898	0.902	0.52	0.526	0.461	0.434	0.439
A-427	0.71	0.761	0.665	0.572	0.527	0.997	1	0.94	0.963	0.901	0.802	1.17	0.84	0.926	0.896	1.08	0.955	1.01	0.886	0.945
NCI-H1703	0.147	0.127	0.123	0.0918	0.127	0.389	0.394	0.453	0.42	0.505	0.989	0.934	0.66	0.679	0.886	0.325	0.297	0.257	0.175	0.154
NCI-H2405	0.773	0.859	0.713	0.55	0.609	0.55	1.01	0.972	0.924	0.613	0.815	0.93	0.97	0.89	0.854	0.891	0.99	0.961	0.954	0.961
LOU-NH91	0.749	0.724	0.75	0.677	0.701	0.515	0.504	0.511	0.56	0.474	0.747	0.806	0.766	0.802	0.847	0.466	0.492	0.543	0.443	0.476
H3255	0.824	0.882	0.851	0.736	0.718	0.716	0.89	0.88	0.991	0.415	0.754	0.934	0.809	0.84	0.384	0.729	0.791	0.657	0.612	0.723
NCI-H1993	0.869	0.7	0.648	0.576	0.638	1.09	1.19	1.12	1.18	1.39	1.12	0.849	1.22	1.06	1.31	1.2	1.11	0.781	1	1.07
LCLC-103H	0.801	0.741	0.858	0.7	0.75	0.971	1.22	1.06	1.12	1.06	1.13	1.19	1.11	1.1	1.09	1.16	1.03	0.998	0.992	1.09

Cell Line	relative viability ([1]; first compound 0.08 µM)	relative viability ([1]; first compound 0.253 µM)	relative viability ([1]; first compound 0.8 µM)	relative viability ([1]; first compound 2.53 µM)	relative viability ([1]; first compound 8 µM)	relative viability ([2]; first compound 10 µM)	relative viability ([2]; first compound 31.62 µM)	relative viability ([2]; first compound 100 µM)	relative viability ([2]; first compound 316.23 µM)	relative viability ([2]; first compound 1000 µM)	relative viability ([3]; first compound 10 µM)	relative viability ([3]; first compound 31.62 µM)	relative viability ([3]; first compound 100 µM)	relative viability ([3]; first compound 316.23 µM)	relative viability ([3]; first compound 1000 µM)	relative viability ([4]; first compound 0.08 µM)	relative viability ([4]; first compound 0.253 µM)	relative viability ([4]; first compound 0.8 µM)	relative viability ([4]; first compound 2.53 µM)	relative viability ([4]; first compound 8 µM)
ChaGo-K-1	0.913	0.853	0.776	0.711	0.617	1.03	1.03	0.993	0.972	0.628	1.16	1.07	1.09	1.13	1.19	–	1.19	0.847	0.857	1.03
NCI-H441	1	1.16	1.05	1.08	1.06	0.273	–	0.344	–	0.404	0.337	–	0.638	0.457	0.655	0.615	0.481	0.592	0.322	0.217
ABC-1	–	0.687	0.882	0.767	0.727	–	0.294	0.334	0.277	0.344	–	1.3	0.869	0.447	0.29	–	0.333	0.311	0.335	0.316
NCI-H1651	0.325	0.514	0.44	0.322	0.324	0.989	1.15	1.16	1.04	1.08	0.933	0.957	0.939	0.964	0.97	0.799	0.955	0.922	0.912	0.861
NCI-H838	0.979	0.957	0.941	0.885	0.865	1.02	1.14	0.926	0.957	1.23	0.815	0.814	0.875	0.864	0.854	0.931	0.963	0.57	0.887	0.712
NCI-H1755	0.442	0.449	0.366	0.375	0.335	0.861	0.913	0.843	0.783	0.896	0.677	0.792	0.744	0.756	0.753	1.02	0.959	0.94	0.945	0.925
NCI-H1734	0.597	0.594	0.548	0.439	0.389	0.952	1.06	0.947	0.951	0.917	0.743	0.83	0.654	0.669	0.74	0.98	1.11	0.947	0.764	0.759
HARA	0.344	0.38	0.184	–	0.128	1.2	1.07	1.19	1.13	1.18	1.13	1.09	1.15	1.01	1.08	1.14	1.07	1.14	0.992	1.18
PC-3 [JPC-3]	–	0.745	0.672	0.63	0.688	0.702	0.865	0.772	0.862	0.833	0.861	0.893	0.951	0.876	0.901	0.832	0.773	0.713	0.716	0.813
NCI-H1666	0.828	0.871	0.776	0.769	0.746	0.789	0.942	0.71	0.828	0.864	1.26	1.03	1.15	1.09	1.2	0.829	1.02	0.824	0.785	0.825
LXF-289	1.13	1.1	1.09	1.02	1.02	0.943	0.904	0.893	0.933	1.01	0.764	0.759	0.812	0.776	0.794	1.02	0.983	0.984	0.936	0.96
EPLC-272H	0.334	0.24	0.206	0.174	0.17	0.837	0.91	0.907	0.909	1.22	1.07	1.03	0.874	0.918	1.06	1.04	0.905	0.806	0.738	0.666
NCI-H2087	1.25	1.25	1.32	1.05	1.05	0.564	0.791	0.691	0.786	0.744	0.813	0.726	0.682	0.849	0.638	0.866	0.82	0.779	0.737	0.671
NCI-H647	–	0.482	0.372	0.341	0.344	1.19	1.15	1.18	0.921	1.17	0.982	1.02	0.955	0.939	0.942	1.27	1.33	1.01	0.736	0.823
LCLC-97TM1	0.233	0.263	0.204	0.19	0.311	0.635	0.87	0.789	0.713	0.351	0.401	0.4	0.457	0.382	0.543	0.774	0.775	0.508	0.344	0.574
201T	0.691	0.701	0.565	0.5	0.471	–	1.15	1.1	1.06	1.12	–	1.04	1.07	0.965	1	1.07	1.07	1.1	1.11	1.08
